Data taken from PubChem BioAssay (NCI).
Where “and” joins values, the source holds several entries; their conditions need not be identical. Equal values may be shown once.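 Following 48 hours of exposure in 96-well plates, responses at five concentrations were used to interpolate endpoints linearly. Here, GI50 denotes the concentration required for 50% inhibition of growth. TGI: concentration producing complete growth inhibition.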

Experiments:
Test in all cases: DTP human tumour cell line panel, 48 h
UACC-257 melanoma = test system: UACC-257 melanoma
NCI-H460 lung = test system: NCI-H460 lung
SK-OV-3 ovarian = test system: SK-OV-3 ovarian
ACHN renal = test system: ACHN renal
SW-620 colon = test system: SW-620 colon
K-562 leukemia = test system: K-562 leukemia
TK-10 renal = test system: TK-10 renal
A498 renal = test system: A498 renal
EKVX NSCLC = test system: EKVX NSCLC
OVCAR-5 ovarian = test system: OVCAR-5 ovarian

Row | Structure (SMILES) | TGI (UACC-257 melanoma) | TGI (NCI-H460 lung) | TGI (SK-OV-3 ovarian) | TGI (ACHN renal) | TGI (SW-620 colon) | TGI (K-562 leukemia) | TGI (TK-10 renal) | TGI (A498 renal) [µM] | TGI (EKVX NSCLC) [µM] | GI50 (UACC-257 melanoma) | GI50 (NCI-H460 lung) | GI50 (SK-OV-3 ovarian) | GI50 (ACHN renal) | GI50 (SW-620 colon) | GI50 (K-562 leukemia) | GI50 (TK-10 renal) | GI50 (A498 renal) [nM] | GI50 (EKVX NSCLC) [µM] | GI50 (OVCAR-5 ovarian) | TGI (OVCAR-5 ovarian)
1 | OCCN(CO)CO | > 100 µM | > 100 µM | > 100 µM | > 100 µM | > 100 µM | > 100 µM | > 100 µM | > 100 | > 100 | – | – | – | – | – | – | – | – | – | – | –
2 | COc1ccc(/C=C/C(=O)c2cc3c(N)c(C(=O)Nc4ccc(OC)cc4)sc3nc2C)cc1 | > 50 µM | 0.484 µM | > 50 µM | > 50 µM | > 50 µM | > 50 µM | > 50 µM | 0.41 | > 50 | > 23400 nM | 155 nM | 0.215 µM | 397 nM | 0.543 µM | 0.385 µM | 2.85 µM | 108 | 1.3 | 299 nM | > 50 µM
3 | C1=CC2CCC1CN2CCC1CNc2ccccc21 (stereo unspecified) | > 100 µM | – | > 100 µM | > 100 µM | > 100 µM | > 100 µM | > 100 µM | > 100 | > 100 | – | – | – | – | – | – | – | – | – | – | > 100 µM
4 | O=CN1N=C(c2cccc(Nc3ccnc4cc(Cl)ccc34)c2)CC1c1ccc(Cl)cc1 (stereo unspecified) | – | > 100 µM | 56.9 µM | > 100 µM | > 100 µM | > 100 µM | – | 6.18 | > 100 | – | 787 nM | 3.48 µM | 5170 nM | 0.557 µM | 0.413 µM | – | 832 | > 100 | > 100000 nM | > 100 µM
5 | CCCCC1(C(NC(=O)c2ccccc2Cl)c2ccncc2)C(=O)N(c2ccccc2)N(c2ccccc2)C1=O (stereo unspecified) | > 100 µM | > 100 µM | > 100 µM | > 100 µM | > 100 µM | > 100 µM | > 100 µM | – | > 100 | – | – | – | – | – | – | – | – | – | – | > 100 µM
6 | COc1ccc(Br)c(C(=O)N2CCc3ccccc32)c1N | > 100 µM | > 100 µM | 80.2 µM | > 100 µM | > 100 µM | > 100 µM | > 100 µM | – | – | – | – | – | – | – | – | – | – | – | – | > 100 µM
7 | O=c1cccc(Cl)[nH]1 | > 100 µM | > 100 µM | > 100 µM | > 100 µM | > 100 µM | > 100 µM | > 100 µM | – | > 100 | – | – | – | – | – | – | – | – | – | – | > 100 µM
8 | Clc1ccc(CN2CCCN(Cc3ccc(Cl)cc3)C2c2cc3ccccc3c3ccccc23)cc1 | 56.1 µM | – | > 100 µM | > 100 µM | > 100 µM | – | > 100 µM | 56.5 | > 100 | – | – | – | – | – | – | – | – | – | – | > 100 µM
9 | CCCCCCCCCCCCCCCC[n+]1ccccc1 | 1.95 µM and 4.67 µM | 1.5 µM and 1.94 µM | 2.5 µM and 2.72 µM | 2.16 µM and 4.49 µM | 1.57 µM and 1.94 µM | 1.64 µM | 0.518 µM and 1.66 µM | – | 2.09 | 534 nM and 1560 nM | 388 nM and 553 nM | 1.03 µM and 0.692 µM | 733 nM and 909 nM | 0.391 µM and 0.488 µM | 0.278 µM | 0.207 µM and 0.432 µM | – | 0.453 | 494 nM and 842 nM | 1.86 µM and 2.93 µM
10 | CC(=O)OCC1OC(n2c3c(cc(C#N)c2=S)CCCC3)C(OC(C)=O)C(OC(C)=O)C1OC(C)=O (stereo unspecified) | > 100 µM | > 100 µM | – | > 100 µM | > 100 µM | 68 µM and > 100 µM | > 100 µM | > 100 | > 100 | – | – | – | – | 44.6 µM and > 100 µM | 24.1 µM and > 100 µM | – | – | – | – | > 100 µM
11 | CCOC1Oc2ccc(C)cc2C(=O)/C1=C\Nc1ccc(S(N)(=O)=O)cc1 (stereo unspecified) | – | > 50 µM | > 50 µM | 45 µM | > 50 µM | > 50 µM | > 50 µM | 46.5 | 31.4 | – | 17000 nM | 17.7 µM | 12600 nM | 15.3 µM | 15.2 µM | 15.7 µM | 17000 | 9.43 | 21.9 nM | 14.1 µM
12 | O=C(O)CCCCC1CCSS1 (stereo unspecified) | > 100 µM | > 100 µM | – | > 100 µM | > 100 µM | > 100 µM | > 100 µM | – | > 100 | – | – | – | – | – | – | – | – | – | – | > 100 µM
13 | COc1cc(-c2nn(-c3cccc(NC(=O)CCNc4ccc(N5CCOCC5)cc4)c3)cc2-c2ccncc2)ccc1Cl | 8.72 µM | 30 µM | > 100 µM | 41.4 µM | > 100 µM | – | 47.9 µM | 17.4 | > 100 | 2380 nM | 2950 nM | 5.02 µM | 2440 nM | 3.55 µM | – | 3.13 µM | 2520 | 3.07 | 3430 nM | > 100 µM
14 | COc1cc(-c2nn(-c3cccc(NC(=O)CCN4CCN(c5ccccc5)CC4)c3)cc2-c2ccncc2)ccc1Cl | 95.5 µM | 31.3 µM | > 100 µM | > 100 µM | > 100 µM | – | > 100 µM | 17.9 | > 100 | 5290 nM | 3110 nM | 4.27 µM | 2670 nM | 4.09 µM | – | 3.69 µM | 3290 | 3.31 | 3150 nM | > 100 µM
15 | COc1ccc(C)cc1NC(=S)C#N | > 100 µM | – | > 100 µM | > 100 µM | > 100 µM | > 100 µM | > 100 µM | > 100 | – | – | – | – | – | – | – | – | – | – | – | > 100 µM
16 | N#CCc1cccc(CC#N)c1Br | > 100 µM | > 100 µM | > 100 µM | > 100 µM | > 100 µM | > 100 µM | – | – | > 100 | – | – | – | – | – | – | – | – | – | – | > 100 µM
17 | Cc1cc(C)nc(NS(=O)(=O)c2ccc(Nc3c4ccccc4nc4c(C(=O)NCCN(C)C)cccc34)cc2)n1 | – | 10.9 µM | – | 15.9 µM | 15.2 µM | 17.8 µM | 27.7 µM | – | 23.6 | – | – | – | – | – | – | – | – | – | – | 29.4 µM
18 | CCOC(=O)[C@@H]1CSC(CC)=C(C(=O)O)N1 | > 100 µM | > 100 µM | > 100 µM | > 100 µM | > 100 µM | > 100 µM | > 100 µM | – | > 100 | > 100000 nM | > 100000 nM | > 100 µM | > 100000 nM | > 100 µM | > 100 µM | > 100 µM | – | > 100 | > 100000 nM | > 100 µM
19 | COc1cc(OC)c2c(=O)c3cccc([N+](=O)[O-])c3n(C)c2c1 | > 100 µM | – | > 100 µM | – | > 100 µM | > 100 µM | > 100 µM | – | > 100 | – | – | – | – | – | – | – | – | – | – | –
